Source: PubChem BioAssay (NCI)
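Grown in 96-well plates, cells were treated for 48 hours with each compound at five concentrations. Insufficient inhibition: endpoint recorded as highest concentration tested. TGI: total growth inhibition.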

What was measured:
Experiment in all cases: growth of human tumour cells (NCI), 48 h
786-0 renal = system: 786-0 renal
A498 renal = system: A498 renal
A549 NSCLC = system: A549 NSCLC
ACHN renal = system: ACHN renal
BT-549 breast = system: BT-549 breast
CAKI-1 renal = system: CAKI-1 renal
CCRF-CEM leukemia = system: CCRF-CEM leukemia
COLO 205 colon = system: COLO 205 colon
DU-145 prostate = system: DU-145 prostate
EKVX NSCLC = system: EKVX NSCLC
HCC-2998 colon = system: HCC-2998 colon
HCT-116 colon = system: HCT-116 colon
HCT-15 colon = system: HCT-15 colon
HL-60(TB) leukemia = system: HL-60(TB) leukemia
HOP-62 NSCLC = system: HOP-62 NSCLC
HOP-92 NSCLC = system: HOP-92 NSCLC
HS 578T breast = system: HS 578T breast
HT29 colon = system: HT29 colon
IGROV1 ovarian = system: IGROV1 ovarian
K-562 leukemia = system: K-562 leukemia
KM12 colon = system: KM12 colon
LOX IMVI melanoma = system: LOX IMVI melanoma
M14 melanoma = system: M14 melanoma
MALME-3M melanoma = system: MALME-3M melanoma
MCF7 breast = system: MCF7 breast
MDA-MB-231 breast = system: MDA-MB-231 breast
MDA-MB-435 = system: MDA-MB-435
MDA-N = system: MDA-N
MOLT-4 leukemia = system: MOLT-4 leukemia
NCI-H226 lung = system: NCI-H226 lung
NCI-H23 lung = system: NCI-H23 lung
NCI-H460 lung = system: NCI-H460 lung
NCI-H522 lung = system: NCI-H522 lung
NCI/ADR-RES ovarian = system: NCI/ADR-RES ovarian
OVCAR-3 ovarian = system: OVCAR-3 ovarian
OVCAR-4 ovarian = system: OVCAR-4 ovarian
OVCAR-5 ovarian = system: OVCAR-5 ovarian
OVCAR-8 ovarian = system: OVCAR-8 ovarian
PC-3 prostate = system: PC-3 prostate
RPMI-8226 leukemia = system: RPMI-8226 leukemia
RXF 393 renal = system: RXF 393 renal
SF-268 CNS = system: SF-268 CNS
SF-295 CNS = system: SF-295 CNS
SF-539 CNS = system: SF-539 CNS
SK-MEL-2 melanoma = system: SK-MEL-2 melanoma
SK-MEL-28 melanoma = system: SK-MEL-28 melanoma
SK-MEL-5 melanoma = system: SK-MEL-5 melanoma
SK-OV-3 ovarian = system: SK-OV-3 ovarian
SN12C renal = system: SN12C renal
SNB-19 CNS = system: SNB-19 CNS
SNB-75 CNS = system: SNB-75 CNS
SR leukemia = system: SR leukemia
SW-620 colon = system: SW-620 colon
T-47D breast = system: T-47D breast
TK-10 renal = system: TK-10 renal
U251 CNS = system: U251 CNS
UACC-257 melanoma = system: UACC-257 melanoma
UACC-62 melanoma = system: UACC-62 melanoma
UO-31 renal = system: UO-31 renal
DLD-1 colon = system: DLD-1 colon
DMS 114 small cell lung = system: DMS 114 small cell lung
KM20L2 colon = system: KM20L2 colon
LXFL 529 NSCLC = system: LXFL 529 NSCLC
M19-MEL melanoma = system: M19-MEL melanoma
SNB-78 CNS = system: SNB-78 CNS
XF 498 CNS = system: XF 498 CNS

Brc1ccc2c(-c3nc(-c4c[nH]c5ccc(Br)cc45)cs3)c[nH]c2c1
TGI (786-0 renal): 6.33 µM | TGI (A498 renal): 11.8 µM | TGI (A549 NSCLC): 17 µM | TGI (ACHN renal): > 30 µM | TGI (BT-549 breast): 27.8 µM | TGI (CAKI-1 renal): 14.5 µM | TGI (CCRF-CEM leukemia): > 27.7 µM | TGI (COLO 205 colon): 7.06 µM | TGI (DU-145 prostate): 19.1 µM | TGI (EKVX NSCLC): 6.98 µM | TGI (HCC-2998 colon): 5.92 µM | TGI (HCT-116 colon): 14.3 µM | TGI (HCT-15 colon): 13.1 µM | TGI (HL-60(TB) leukemia): 23.2 µM | TGI (HOP-62 NSCLC): 29.3 µM | TGI (HOP-92 NSCLC): 11 µM | TGI (HS 578T breast): > 52.9 µM | TGI (HT29 colon): 3.61 µM | TGI (IGROV1 ovarian): 16.9 µM | TGI (K-562 leukemia): > 22.3 µM | TGI (KM12 colon): 8.19 µM | TGI (LOX IMVI melanoma): 5.22 µM | TGI (M14 melanoma): 13.8 µM | TGI (MALME-3M melanoma): 19.4 µM | TGI (MCF7 breast): 13.9 µM | TGI (MDA-MB-231 breast): 18.4 µM | TGI (MDA-MB-435): 18.9 µM | TGI (MDA-N): 16.4 µM | TGI (MOLT-4 leukemia): 8.42 µM | TGI (NCI-H226 lung): 5.37 µM | TGI (NCI-H23 lung): 13.3 µM | TGI (NCI-H460 lung): 8.36 µM | TGI (NCI-H522 lung): 4.85 µM | TGI (NCI/ADR-RES ovarian): 18.1 µM | TGI (OVCAR-3 ovarian): 28 µM | TGI (OVCAR-4 ovarian): 24.3 µM | TGI (OVCAR-5 ovarian): 10.4 µM | TGI (OVCAR-8 ovarian): 25.3 µM | TGI (PC-3 prostate): 17.9 µM | TGI (RPMI-8226 leukemia): 14 µM | TGI (RXF 393 renal): 12.4 µM | TGI (SF-268 CNS): 17.7 µM | TGI (SF-295 CNS): 17.8 µM | TGI (SF-539 CNS): 18.1 µM | TGI (SK-MEL-2 melanoma): 20.7 µM | TGI (SK-MEL-28 melanoma): 28.7 µM | TGI (SK-MEL-5 melanoma): 12.3 µM | TGI (SK-OV-3 ovarian): 29.4 µM | TGI (SN12C renal): 16.9 µM | TGI (SNB-19 CNS): 13 µM | TGI (SNB-75 CNS): 31.4 µM | TGI (SR leukemia): 13 µM | TGI (SW-620 colon): 24.4 µM | TGI (T-47D breast): 31.9 µM | TGI (TK-10 renal): 17.9 µM | TGI (U251 CNS): 16.1 µM | TGI (UACC-257 melanoma): 23.6 µM | TGI (UACC-62 melanoma): > 48.4 µM | TGI (UO-31 renal): 13.7 µM

COC12C=CC(CC1)C(C)(C)C2=O (stereo not given)
TGI (786-0 renal): > 100 µM | TGI (A498 renal): > 100 µM | TGI (A549 NSCLC): > 100 µM | TGI (ACHN renal): > 100 µM | TGI (BT-549 breast): > 100 µM | TGI (CAKI-1 renal): > 100 µM | TGI (CCRF-CEM leukemia): > 100 µM | TGI (COLO 205 colon): > 100 µM | TGI (DU-145 prostate): > 100 µM | TGI (EKVX NSCLC): > 100 µM | TGI (HCC-2998 colon): > 100 µM | TGI (HCT-116 colon): > 100 µM | TGI (HCT-15 colon): > 100 µM | TGI (HL-60(TB) leukemia): > 100 µM | TGI (HOP-62 NSCLC): > 100 µM | TGI (HOP-92 NSCLC): > 100 µM | TGI (HS 578T breast): > 100 µM | TGI (HT29 colon): > 100 µM | TGI (IGROV1 ovarian): > 100 µM | TGI (K-562 leukemia): > 100 µM | TGI (KM12 colon): > 100 µM | TGI (M14 melanoma): > 100 µM | TGI (MALME-3M melanoma): > 100 µM | TGI (MCF7 breast): > 100 µM | TGI (MDA-MB-231 breast): > 100 µM | TGI (MDA-MB-435): > 100 µM | TGI (MDA-N): > 100 µM | TGI (MOLT-4 leukemia): > 100 µM | TGI (NCI-H226 lung): > 100 µM | TGI (NCI-H23 lung): > 100 µM | TGI (NCI-H460 lung): > 100 µM | TGI (NCI-H522 lung): > 100 µM | TGI (NCI/ADR-RES ovarian): > 100 µM | TGI (OVCAR-3 ovarian): > 100 µM | TGI (OVCAR-4 ovarian): > 100 µM | TGI (OVCAR-5 ovarian): > 100 µM | TGI (OVCAR-8 ovarian): > 100 µM | TGI (PC-3 prostate): > 100 µM | TGI (RPMI-8226 leukemia): > 100 µM | TGI (RXF 393 renal): > 100 µM | TGI (SF-268 CNS): > 100 µM | TGI (SF-295 CNS): > 100 µM | TGI (SF-539 CNS): > 100 µM | TGI (SK-MEL-2 melanoma): > 100 µM | TGI (SK-MEL-28 melanoma): > 100 µM | TGI (SK-MEL-5 melanoma): > 100 µM | TGI (SK-OV-3 ovarian): > 100 µM | TGI (SN12C renal): > 100 µM | TGI (SNB-19 CNS): > 100 µM | TGI (SNB-75 CNS): > 100 µM | TGI (SR leukemia): > 100 µM | TGI (SW-620 colon): > 100 µM | TGI (T-47D breast): > 100 µM | TGI (TK-10 renal): > 100 µM | TGI (U251 CNS): > 100 µM | TGI (UACC-257 melanoma): > 100 µM | TGI (UACC-62 melanoma): > 100 µM | TGI (UO-31 renal): > 100 µM

COc1cc(Cc2cc(OC)c(OC)c(OC)c2)ccc1O
TGI (786-0 renal): > 100 µM | TGI (A549 NSCLC): > 100 µM | TGI (ACHN renal): > 100 µM | TGI (CAKI-1 renal): > 100 µM | TGI (CCRF-CEM leukemia): > 100 µM | TGI (COLO 205 colon): > 100 µM | TGI (DLD-1 colon): > 100 µM | TGI (DMS 114 small cell lung): > 100 µM | TGI (EKVX NSCLC): > 100 µM | TGI (HCC-2998 colon): > 100 µM | TGI (HCT-116 colon): > 100 µM | TGI (HCT-15 colon): > 100 µM | TGI (HL-60(TB) leukemia): 6.55 µM | TGI (HOP-62 NSCLC): > 100 µM | TGI (HOP-92 NSCLC): > 100 µM | TGI (HT29 colon): > 100 µM | TGI (IGROV1 ovarian): > 100 µM | TGI (K-562 leukemia): > 100 µM | TGI (KM12 colon): > 100 µM | TGI (KM20L2 colon): > 100 µM | TGI (LOX IMVI melanoma): > 100 µM | TGI (LXFL 529 NSCLC): > 100 µM | TGI (M14 melanoma): > 100 µM | TGI (M19-MEL melanoma): > 100 µM | TGI (MALME-3M melanoma): 12 µM | TGI (MOLT-4 leukemia): > 100 µM | TGI (NCI-H226 lung): > 100 µM | TGI (NCI-H23 lung): > 100 µM | TGI (NCI-H522 lung): 39.5 µM | TGI (OVCAR-3 ovarian): 52.4 µM | TGI (OVCAR-4 ovarian): > 100 µM | TGI (OVCAR-5 ovarian): > 100 µM | TGI (OVCAR-8 ovarian): > 100 µM | TGI (RPMI-8226 leukemia): > 100 µM | TGI (SF-268 CNS): > 100 µM | TGI (SF-295 CNS): 28.6 µM | TGI (SF-539 CNS): 56.2 µM | TGI (SK-MEL-2 melanoma): 64.5 µM | TGI (SK-MEL-28 melanoma): > 100 µM | TGI (SK-MEL-5 melanoma): > 100 µM | TGI (SK-OV-3 ovarian): > 100 µM | TGI (SN12C renal): > 100 µM | TGI (SNB-19 CNS): > 100 µM | TGI (SNB-75 CNS): 28.6 µM | TGI (SNB-78 CNS): > 100 µM | TGI (SR leukemia): > 100 µM | TGI (SW-620 colon): > 100 µM | TGI (TK-10 renal): > 100 µM | TGI (U251 CNS): > 100 µM | TGI (UACC-257 melanoma): > 100 µM | TGI (UACC-62 melanoma): > 100 µM | TGI (UO-31 renal): > 100 µM | TGI (XF 498 CNS): > 100 µM
